Here are results for 20 compounds from patent US10865216B2, “Tricyclic Gyrase inhibitors” (MERCK SHARP & DOHME CORP., priority 2012, dated 2020).

A word on the MIC: it is the lowest concentration found to suppress growth.

One test relates to S. aureus ATCC 13709. Put plainly: MIC, S. aureus ATCC 13709. Format: cell-based. As to conditions: for MIC: Staphylococcus aureus.
For the next test, the system named is E. coli ATCC 25922. Put plainly: MIC, E. coli ATCC 25922. Format: cell-based. As to conditions: for MIC: Escherichia coli.
The mark [1] stands for this setting: ATCC13709, S. aureus, Alamar Blue read after overnight incubation at 35° C., read-out: MIC Sa.
Setting [2] is: ATCC25922, E. coli, Alamar Blue read after overnight incubation at 35° C., read-out: MIC Ec.
Setting [3] is: S. aureus, Alamar Blue read after overnight incubation at 35° C.
[4] abbreviates: E. coli, Alamar Blue read after overnight incubation at 35° C.

Values after ≈ are worked out from the molar mass of the structure shown. Read-outs that look alike come from different tables or passages of the source. Where only a bound is given, the exact number is not on record here.

On to `CNc1cccc2c1[nH]c1nc(Sc3cnc4ccc[n+]([O-])c4c3)nc(N3C[C@@H]4[C@@H](CN)[C@@H]4C3)c12` [Compound 1.18], for which the values for the MIC with S. aureus ATCC 13709 (setting [1]) and with E. coli ATCC 25922 (setting [2]) were not above 0.5 µg/mL and 2 µg/mL (≈ 4.13 µM), respectively.

In the case of `CNc1cc(F)cc2c1[nH]c1nc(Oc3cnc(C)nc3)nc(N3CC(N)C(C(F)(F)F)C3)c12` (stereo not shown) [Compound 4.436], the figures for the MIC with S. aureus ATCC 13709 (setting [1]) and with E. coli ATCC 25922 (setting [2]) were not above 0.5 µg/mL and more than 16 µg/mL, respectively.

As to `CNc1cc(F)cc2c1[nH]c1nc(Oc3cncnc3)nc(N3CC(N)C4(CC4)C3)c12` (stereo not shown) [Compound 4.002], the “MIC Sa” value with S. aureus ATCC 13709 (setting [3]) is not above 0.5 µg/mL. The “MIC Ec” value with E. coli ATCC 25922 (setting [4]) was not above 0.5 µg/mL.

On to `CNc1cc(F)cc2c1[nH]c1nc(Oc3cncc(Cl)c3)nc(N3CC4C(N)C4C3)c12` (stereo not shown) [Compound 4.272], for which the “MIC Sa” value against S. aureus ATCC 13709 (setting [3]) was not above 0.5 µg/mL. For the same compound, the “MIC Ec” value against E. coli ATCC 25922 (setting [4]) was not above 0.5 µg/mL.

Turning to `CNc1ncc(Oc2nc(N3C[C@H](N)C4(CC4)C3)c3c(n2)[nH]c2c(NC)cc(F)cc23)cn1` [Compound 4.216], in the test with S. aureus ATCC 13709 (setting [3]), the “MIC Sa” value is not above 0.5 µg/mL. For the same compound, in the test on E. coli ATCC 25922 (setting [4]), the “MIC Ec” value was not above 0.5 µg/mL.

`CNc1cccc2c1[nH]c1nc(Oc3cncnc3)cc(N3CCC4(CNC4)C3)c12` [Compound 3.65]: the minimal inhibitory concentration (MIC) in the test with S. aureus ATCC 13709 (setting [1]) is 8 µg/mL (≈ 19.9 µM); in the test with E. coli ATCC 25922 (setting [2]), 64 µg/mL (≈ 159 µM).

As to `CNc1cc(F)cc2c1[nH]c1nc(Oc3cnc(N)nc3)nc(N3CC4C(N)C4C3)c12` (stereo not shown) [Compound 4.172], the “MIC Sa” value in the test with S. aureus ATCC 13709 (setting [3]) is not above 0.5 µg/mL. Also, the “MIC Ec” value against E. coli ATCC 25922 (setting [4]) is not above 0.5 µg/mL.

The compound `CNc1cc(F)c(Cl)c2c1[nH]c1nc(Oc3cnc(C)nc3)nc(N3CC4(CC[C@H]4N)C3)c12` [Compound 10.66] had an MIC Sa against S. aureus ATCC 13709 (Table 18, Sa) not above 0.5 µg/mL. The MIC Ec in the test on E. coli ATCC 25922 (Table 18, Ec) is not above 0.5 µg/mL.

As to `CNc1cc(F)cc2c1[nH]c1nc(Oc3cncnc3)nc(N3CCC4(CC4N)C3)c12` (stereo not shown) [Compound 4.003], the “MIC Sa” value against S. aureus ATCC 13709 (setting [3]) is not above 0.5 µg/mL. Moreover, the “MIC Ec” value in the test on E. coli ATCC 25922 (setting [4]) was not above 0.5 µg/mL.

Regarding `CNc1cccc2c1[nH]c1nc(Oc3cnc(C)nc3)cc(N3C[C@@H](NC)C4(CC4)C3)c12` [Compound 3.48], the minimal inhibitory concentration (MIC) stood at 2 µg/mL (≈ 4.66 µM) in the test on S. aureus ATCC 13709 (setting [1]) and 8 µg/mL (≈ 18.6 µM) in the test with E. coli ATCC 25922 (setting [2]).

For the compound `CNc1cc(F)cc2c1[nH]c1nc(Oc3cnc(C)nc3)nc(N3CC4CNC4C3)c12` (stereo not shown) [Compound 4.067], the “MIC Sa” value against S. aureus ATCC 13709 (setting [3]) was not above 0.5 µg/mL. For the same compound, the “MIC Ec” value against E. coli ATCC 25922 (setting [4]) is not above 0.5 µg/mL.

Consider `CNc1cc(F)c(C)c2c1[nH]c1nc(Oc3cnc(C)nc3)nc(N3CC4(CCC4N)C3)c12` (stereo not shown) [Compound 6.20], for which the “MIC Sa” value in the test on S. aureus ATCC 13709 (setting [3]) came to 4 µg/mL (≈ 8.92 µM). Further, the “MIC Ec” value with E. coli ATCC 25922 (setting [4]) was more than 16 µg/mL.

Turning to `CNc1cccc2c1[nH]c1nc(Oc3cncnc3)cc(N3CC(N)C4(CC4)C3)c12` (stereo not shown) [Compound 3.45], the MIC in the test on S. aureus ATCC 13709 (setting [1]) and in the test with E. coli ATCC 25922 (setting [2]) was not above 0.5 µg/mL in each case.

As for `CNc1cc(F)cc2c1[nH]c1nc(Oc3cnc(C(N)=O)nc3)nc(N3C[C@H](N)C4(CC4)C3)c12` [Compound 4.375], in the test with S. aureus ATCC 13709 (setting [3]), the “MIC Sa” value is not above 0.5 µg/mL. Besides, in the test with E. coli ATCC 25922 (setting [4]), the “MIC Ec” value was 4 µg/mL (≈ 8.63 µM).

`CNc1cc(F)c(F)c2c1[nH]c1nc(Oc3cnc(C)nc3)nc(N3CC[C@]4(CC[C@H]4N)C3)c12` [Compound 10.92] registered an MIC Sa in the test on S. aureus ATCC 13709 (Table 18, Sa) not above 0.5 µg/mL. In addition, in the test on E. coli ATCC 25922 (Table 18, Ec), the MIC Ec is not above 0.5 µg/mL.

Turning to `CNc1cccc2c1[nH]c1nc(Sc3cnc4cccnc4c3)nc(N3CCC(CN)C3)c12` (stereo not shown) [Compound 1.48], the minimum inhibitory concentration (MIC) in the test on S. aureus ATCC 13709 (setting [1]) is not above 0.5 µg/mL; in the test with E. coli ATCC 25922 (setting [2]) it was 2 µg/mL (≈ 4.38 µM).

Take `CNc1cc(F)cc2c1[nH]c1nc(Oc3cnc(C)nc3)nc(N3CC4NCCOC4C3)c12` (stereo not shown) [Compound 4.114]: the “MIC Sa” value in the test on S. aureus ATCC 13709 (setting [3]) was not above 0.5 µg/mL. In addition, the “MIC Ec” value against E. coli ATCC 25922 (setting [4]) was determined as 2 µg/mL (≈ 4.44 µM).

For the compound `CNc1cc(F)cc2c1[nH]c1nc(Oc3cnc(C)nc3)nc(N3CC(C)C(CN)C3)c12` (stereo not shown) [Compound 4.087], the “MIC Sa” value with S. aureus ATCC 13709 (setting [3]) was not above 0.5 µg/mL. In addition, the “MIC Ec” value against E. coli ATCC 25922 (setting [4]) stood at 1 µg/mL (≈ 2.29 µM).

Turning to `CNc1cc(F)cc2c1[nH]c1nc(Oc3cnc4ccnn4c3)nc(N3CC4(CCC4N)C3)c12` (stereo not shown) [Compound 10.56], the MIC Sa in the test with S. aureus ATCC 13709 (Table 18, Sa) is not above 0.5 µg/mL. Also, the MIC Ec against E. coli ATCC 25922 (Table 18, Ec) is not above 0.5 µg/mL.

`CNc1cc(F)cc2c1[nH]c1nc(Oc3cnc(C)nc3)nc(N3CCC(F)(CN)C3)c12` (stereo not shown): the MIC with S. aureus ATCC 13709 (ATCC13709, Table 16, new R4 substituents, read-out: SA MIC) was not above 0.5 µg/mL; with E. coli ATCC 25922 (ATCC25922, Table 16, new R4 substituents, EC8 not defined, read-out: EC8 MIC), not above 0.5 µg/mL.
